# Test results published in PubChem BioAssay AID2060888 (Molecular Pharmacology Branch, DTP, NCI, 2025).
# pIC50: −log10 of the molar value.
# Test system: 695427-040-R-J1-PDC complex spheroid viability
# Experiment: Anticancer human tumor 695427-040-R-J1-PDC patient-derived colon adenocarcinoma cell line growth inhibition [RAS]
# Details: for pIC50: curve of first compound; for viability, T/C: stronger effect = lower value
# Text: RAS pathway inhibitors in Combinations in Complex Spheroids
# A high-throughput screen of multi-cell type tumor spheroids was designed to identify active combinations of RAS pathway inhibitors and targeted small molecules. Complex spheroids include a stromal component modeled by human endothelial cells (HUVEC) and fibroblasts modeled by human mesenchymal stem cells (MSCs). The concentration ranges selected for each drug and investigational agent were based upon clinically achievable concentrations if the clinical Cmax of the agent was known.
# Compounds. The drugs and investigational agents: abemaciclib (NSC768073), cobimetinib (NSC768068), divarasib (GDC6063, NSC841802), docetaxel (NSC628503), GDC-1971 (RLY-1971, NSC841576), gemcitabine (NSC613327), inavolisib (NSC800729), ipatasertib (NSC767898), KB-0742 (NSC834161), MRTX-1133 (NSC836407), osimertinib (NSC779217), RMC-4630 (NSC839698), RMC-6236 (NSC851965), RMC-6291 (NSC852671), Ro-3306 (NSC812927), sapanisertib (NSC764658), SN-38 (NSC673596), staurosporine (NSC755774), SY5609 (NSC837396), and tovorafenib (DAY101, NSC766906), were obtained from the National Cancer Institute (NCI) Developmental Therapeutics Program Chemical Repository. The FDA-approved anticancer drug set is available from the NCI Developmental Therapeutics Program. […] The stock solutions were prepared in dimethyl sulfoxide (DMSO, Sigma-Aldrich, St. Louis, MO, cat. D2650) at 800-fold the tested concentration and stored at -70 degrees C prior to their use. All drugs and investigational agents were tested over a range starting from a high concentration at or near the clinical Cmax and decreasing in half-log increments. If the clinical Cmax for an agent had not been determined, the highest concentration tested was 10 microM.
# Cell Culture. All cells were maintained in an incubator at 37 degrees C and 5% CO2 with 95% humidity. The PDC lines were cultured according to standard operating procedures established by the NCI PDMR. All PDCs were thawed and cultured in Matrigel-coated flasks prepared with a working solution of 1X Ham's F-12 nutrient mix, without supplementation (Invitrogen, Waltham, MA, cat. 11765054), 100 U/mL penicillin-streptomycin (Invitrogen, cat. 15140122), and 2.5% Matrigel (Corning Inc., Corning, NY, cat. 354248) for the first three passages. The 362531-283-R-J2-PDC and 782815-120-R-J1-PDC lines were cultured in 6C/Colon 1B media, which includes advanced DMEM/F-12 (Thermo Fisher Scientific, cat. 12634028), 10 mM HEPES (Thermo Fisher Scientific, cat. 15630080), 1X GlutaMAX supplement (Thermo Fisher Scientific, cat. 35050061), 0.1 mg/mL primocin (InvivoGen, San Diego, CA, cat. ant-pm-2), 10% defined fetal bovine serum, heat inactivated (HyClone Laboratories Inc., Logan, UT, cat. SH30070.03HI), 50% L-WRN conditioned media (ATCC, cat. CRL-3276), 1.25 mM N-Acetyl-L-cysteine (Sigma-Aldrich, cat. A9165), 10 mM nicotinamide (Sigma-Aldrich, cat. N0636), 1X B-27 supplement (Thermo Fisher Scientific, cat. 17504044), 1X N-2 supplement (Thermo Fisher Scientific, cat. 17502048), 50 ng/mL human EGF (Thermo Fisher Scientific, cat. PHG0311), and 10 microM Y-27632 dihydrochloride (Tocris Bioscience, cat. 1254). The K12877-001-R-J1-PDC line was cultured in 6I media, which includes all 6C/Colon 1B media plus 10 ng/mL human FGF-10 (PeproTech, cat. 100-26), 1 ng/mL human FGF-2 (PeproTech, cat. 100-18B), 1 µM prostaglandin E2 (Tocris Bioscience, cat. 2296), […] hydrocortisone (Sigma-Aldrich, cat. H4001), and […] bovine insulin (Sigma-Aldrich, cat. I6634). The K86415-001-R-J1-PDC line was cultured in 6D media, which includes all 6C/Colon 1B media components minus the L-WRN conditioned media. The 485176-168-R4-J1-PDC was cultured in PANC media, which includes all 6C/Colon 1B media plus 100 ng/mL human FGF-10 (PeproTech, cat. 100-26), 500 nM SB-431542 (Selleckchem, cat. S1067), and 10 nM gastrin (Tocris Bioscience, cat. 3006). […]
# 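Also: viability read after seven days of drug exposure.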
# 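For viability, T/C in this document: 100% = DMSO vehicle control viability.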
smiles,measurement,setting,value
C[C@@H](NC(=O)c1ncnc(N)c1Cl)c1ncc(C(=O)Nc2cc(C(F)(F)F)c(Cl)cn2)s1 + C#Cc1c(F)ccc2cc(O)cc(-c3ncc4c(N5CC6CCC(C5)N6)nc(OCC56CCCN5CC(F)C6)nc4c3F)c12,pIC50,second compound 0.0316 µM,< 5.00
same,pIC50,second compound 0.1 µM,< 5.00
same,pIC50,second compound 0.316 µM,< 5.00
same,pIC50,second compound 1 µM,< 5.00
same,pIC50,second compound 3.16 µM,< 5.00
same,pIC50,second compound 10 µM,> 7.50
same,"viability, T/C","second compound 0.0316 µM, first compound 0.0316 µM",99.8%
same,"viability, T/C","second compound 0.0316 µM, first compound 0.1 µM",117%
same,"viability, T/C","second compound 0.0316 µM, first compound 0.316 µM",108%
same,"viability, T/C","second compound 0.0316 µM, first compound 1 µM",102%
same,"viability, T/C","second compound 0.0316 µM, first compound 3.16 µM",101%
same,"viability, T/C","second compound 0.0316 µM, first compound 10 µM",80.2%
same,"viability, T/C","second compound 0.1 µM, first compound 0.0316 µM",109%
same,"viability, T/C","second compound 0.1 µM, first compound 0.1 µM",106%
same,"viability, T/C","second compound 0.1 µM, first compound 0.316 µM",101%
same,"viability, T/C","second compound 0.1 µM, first compound 1 µM",100%
same,"viability, T/C","second compound 0.1 µM, first compound 3.16 µM",94.3%
same,"viability, T/C","second compound 0.1 µM, first compound 10 µM",70.9%
same,"viability, T/C","second compound 0.316 µM, first compound 0.0316 µM",99.8%
same,"viability, T/C","second compound 0.316 µM, first compound 0.1 µM",95.1%
same,"viability, T/C","second compound 0.316 µM, first compound 0.316 µM",101%
same,"viability, T/C","second compound 0.316 µM, first compound 1 µM",93%
same,"viability, T/C","second compound 0.316 µM, first compound 3.16 µM",81.6%
same,"viability, T/C","second compound 0.316 µM, first compound 10 µM",70.3%
same,"viability, T/C","second compound 1 µM, first compound 0.0316 µM",87.9%
same,"viability, T/C","second compound 1 µM, first compound 0.1 µM",83.2%
same,"viability, T/C","second compound 1 µM, first compound 0.316 µM",88.5%
same,"viability, T/C","second compound 1 µM, first compound 1 µM",84.1%
same,"viability, T/C","second compound 1 µM, first compound 3.16 µM",76.3%
same,"viability, T/C","second compound 1 µM, first compound 10 µM",57.2%
same,"viability, T/C","second compound 3.16 µM, first compound 0.0316 µM",59.2%
same,"viability, T/C","second compound 3.16 µM, first compound 0.1 µM",60.5%
same,"viability, T/C","second compound 3.16 µM, first compound 0.316 µM",65.9%
same,"viability, T/C","second compound 3.16 µM, first compound 1 µM",63.9%
same,"viability, T/C","second compound 3.16 µM, first compound 3.16 µM",56.9%
same,"viability, T/C","second compound 3.16 µM, first compound 10 µM",42.5%
same,"viability, T/C","second compound 10 µM, first compound 0.0316 µM",35.1%
same,"viability, T/C","second compound 10 µM, first compound 0.1 µM",34.4%
same,"viability, T/C","second compound 10 µM, first compound 0.316 µM",42.2%
same,"viability, T/C","second compound 10 µM, first compound 1 µM",37.9%
same,"viability, T/C","second compound 10 µM, first compound 3.16 µM",41.3%
same,"viability, T/C","second compound 10 µM, first compound 10 µM",27.8%
